Results reported in US9822147B2, “Methods of treating ophthalmic diseases using NPR-B agonists” (priority 2009, dated 2017).
Numbered stars: 1 amine (or outer) side, 2 acyl side, 3 side chain; on linkers, the order of the positions; unused ones are H or OH. Square brackets hold non-standard residues; d marks the D form. Peptide text beside a SMILES is read from it. * marks the point of attachment. X2 = O=C([C@H]1CCCN([*:1])C1)[*:2]; Hyp = O=C(O)[C@@H]1C[C@@H](O)CN1; NMeL = CN[C@@H](CC(C)C)C(=O)O; dOrn = NCCC[C@@H](N)C(=O)O; Octanoyl = CCCCCCCC(=O)*

The compounds below were run against T1, NPR-B (Homo sapiens, UniProt P20594) (assay: NPR-B induced production of cyclic GMP in human glaucoma trabecular meshwork cells (GTM-3)). Conditions: not given.
T1 construct: a functional assay using endogenously NPR-B expressing GTM-3 cells; endogenous in cells; host or cells: GTM-3 (human glaucoma trabecular meshwork cells)
T1 sequence (P20594 23-1047): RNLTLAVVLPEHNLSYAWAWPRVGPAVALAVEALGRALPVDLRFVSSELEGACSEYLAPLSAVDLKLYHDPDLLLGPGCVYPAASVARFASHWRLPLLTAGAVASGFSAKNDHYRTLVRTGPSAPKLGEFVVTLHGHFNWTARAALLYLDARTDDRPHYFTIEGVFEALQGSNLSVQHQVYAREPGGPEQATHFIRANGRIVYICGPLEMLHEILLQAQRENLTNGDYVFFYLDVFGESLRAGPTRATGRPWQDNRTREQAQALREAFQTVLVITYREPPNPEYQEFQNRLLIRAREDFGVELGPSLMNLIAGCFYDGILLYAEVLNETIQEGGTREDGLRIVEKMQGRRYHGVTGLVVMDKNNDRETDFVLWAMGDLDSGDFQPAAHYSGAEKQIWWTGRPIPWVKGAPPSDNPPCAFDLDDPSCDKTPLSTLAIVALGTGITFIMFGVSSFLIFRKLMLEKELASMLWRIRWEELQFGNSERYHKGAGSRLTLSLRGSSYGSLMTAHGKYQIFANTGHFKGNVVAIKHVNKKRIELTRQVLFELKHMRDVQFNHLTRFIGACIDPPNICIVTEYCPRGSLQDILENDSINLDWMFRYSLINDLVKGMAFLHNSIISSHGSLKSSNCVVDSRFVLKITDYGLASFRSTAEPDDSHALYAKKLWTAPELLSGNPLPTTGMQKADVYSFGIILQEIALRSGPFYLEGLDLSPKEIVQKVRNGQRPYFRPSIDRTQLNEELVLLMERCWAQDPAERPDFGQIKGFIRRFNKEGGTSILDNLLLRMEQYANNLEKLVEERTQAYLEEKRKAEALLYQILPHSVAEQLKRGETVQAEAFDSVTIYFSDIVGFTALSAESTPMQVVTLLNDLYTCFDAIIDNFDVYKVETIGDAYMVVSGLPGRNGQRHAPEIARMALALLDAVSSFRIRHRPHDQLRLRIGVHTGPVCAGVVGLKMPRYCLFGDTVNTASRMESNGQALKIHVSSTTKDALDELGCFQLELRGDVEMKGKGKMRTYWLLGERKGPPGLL
Assay type: cell-based
`CCCCCCCC(=O)N[C@H](C)C(=O)N[C@@H](Cc1ccccc1)C(=O)NCC(=O)N[C@@H](CC(C)C)C(=O)N1C[C@H](N)C[C@H]1C(=O)N[C@@H](CC(C)C)C(=O)N[C@@H](CC(=O)O)C(=O)N[C@@H](CCCNC(=N)N)C(=O)N[C@H](C(N)=O)[C@@H](C)CC` [JAL-1249, Occ-ala-Phe-Gly-Leu-Tap-Leu-Asp-Arg-Ile-NH2] (HELM PEPTIDE1{[CCCCCCCC(=O)[*:2]].[dA].F.G.L.[N[C@@H]1C[C@@H](C(=O)[*:2])N([*:1])C1].L.D.R.I.[am]}$$$$V2.0) was tested, and the EC50 was less than 1 µM.

Same assay, conditions: group by EC50 and Emax (CNP = 100%); Table 4; read-out: Activity (group), NPR-B activation assayed with GTM-3 cells
In the case of `CCCCCCCC(=O)N[C@H](C)C(=O)N[C@@H](Cc1ccccc1)C(=O)N[C@H](CCCNC(=N)N)C(=O)N[C@@H](CC(C)C)C(=O)N1C[C@H](N)C[C@H]1C(=O)N[C@@H](CC(C)C)C(=O)N[C@@H](CC(=O)O)C(=O)N[C@@H](CCCNC(=N)N)C(=O)N[C@H](C(N)=O)[C@@H](C)CC` [JAL-1250, Occ-ala-Phe-arg-Leu-Tap-Leu-Asp-Arg-Ile-NH2] (HELM PEPTIDE1{[CCCCCCCC(=O)[*:2]].[dA].F.[dR].L.[N[C@@H]1C[C@@H](C(=O)[*:2])N([*:1])C1].L.D.R.I.[am]}$$$$V2.0), the EC50 is reported as less than 1 µM.
With `CCCCCCCC(=O)N[C@H](C)C(=O)N[C@@H](Cc1ccccc1)C(=O)N[C@H](CO)C(=O)N[C@@H](CC(C)C)C(=O)N1C[C@H](O)C[C@H]1C(=O)N(C)[C@@H](CC(C)C)C(=O)N[C@@H](CC(=O)O)C(=O)N[C@@H](CCCNC(=N)N)C(=O)N[C@H](C(N)=O)[C@@H](C)CC` [JAL-1252, Occ-ala-Phe-ser-Leu-Hyp-Nml-Asp-Arg-Ile-NH2] (HELM PEPTIDE1{[CCCCCCCC(=O)[*:2]].[dA].F.[dS].L.[Hyp].[meL].D.R.I.[am]}$$$$V2.0) the EC50 was less than 1 µM.
In the case of `CCCCCCCC(=O)N1CCC[C@H](C(=O)N[C@@H](Cc2ccccc2)C(=O)N[C@H](CCCCN)C(=O)N[C@@H](CC(C)C)C(=O)N2C[C@H](O)C[C@H]2C(=O)N(C)[C@@H](CC(C)C)C(=O)N[C@@H](CC(=O)O)C(=O)N[C@@H](CCCNC(=N)N)C(=O)N[C@H](C(N)=O)[C@@H](C)CC)C1` [JAL-1254, Occ-Sni-Phe-lys-Leu-Hyp-Nml-Asp-Arg-Ile-NH2] (HELM PEPTIDE1{[CCCCCCCC(=O)[*:2]].[O=C([C@H]1CCCN([*:1])C1)[*:2]].F.[dK].L.[Hyp].[meL].D.R.I.[am]}$$$$V2.0), the EC50 is reported as less than 1 µM.
For `CCCCCCCC(=O)N1CCC[C@H](C(=O)N[C@@H](Cc2ccccc2)C(=O)N[C@H](CCCNC(=N)N)C(=O)N[C@@H](CC(C)C)C(=O)N2C[C@H](O)C[C@H]2C(=O)N(C)[C@@H](CC(C)C)C(=O)N[C@@H](CC(=O)O)C(=O)N[C@@H](CCCNC(=N)N)C(=O)N[C@H](C(N)=O)[C@@H](C)CC)C1` [JAL-1255, Occ-Sni-Phe-arg-Leu-Hyp-Nml-Asp-Arg-Ile-NH2] (HELM PEPTIDE1{[CCCCCCCC(=O)[*:2]].[O=C([C@H]1CCCN([*:1])C1)[*:2]].F.[dR].L.[Hyp].[meL].D.R.I.[am]}$$$$V2.0), the EC50 was less than 1 µM.
For `CCCCCCCC(=O)N1CCC[C@H](C(=O)N[C@@H](Cc2ccccc2)C(=O)N[C@H](CCCN)C(=O)N[C@@H](CC(C)C)C(=O)N2C[C@H](O)C[C@H]2C(=O)N(C)[C@@H](CC(C)C)C(=O)N[C@@H](CC(=O)O)C(=O)N[C@@H](CCCNC(=N)N)C(=O)N[C@H](C(N)=O)[C@@H](C)CC)C1` [JAL-1265, Occ-Sni-Phe-orn-Leu-Hyp-Nml-Asp-Arg-Ile-NH2] (Octanoyl-[X2]F[dOrn]L[Hyp][NMeL]DRI-NH2), the EC50 was less than 1 µM.
`CCCCCCCC(=O)N[C@H](C)C(=O)N(C)[C@@H](Cc1ccccc1)C(=O)N[C@H](CC(C)C)C(=O)N[C@@H](CC(C)C)C(=O)N1C[C@H](O)C[C@H]1C(=O)N(C)[C@@H](CC(C)C)C(=O)N[C@@H](CC(=O)O)C(=O)N[C@@H](CCCNC(=N)N)C(=O)N[C@H](C(N)=O)[C@@H](C)CC` [JAL-1267, Occ-ala-Nmf-leu-Leu-Hyp-Nml-Asp-Arg-Ile-NH2] (HELM PEPTIDE1{[CCCCCCCC(=O)[*:2]].[dA].[meF].[dL].L.[Hyp].[meL].D.R.I.[am]}$$$$V2.0) gave an EC50 of less than 1 µM.
In the case of `CCCCCCCC(=O)N[C@H](C)C(=O)N[C@@H](Cc1ccccc1)C(=O)N[C@H](CC(C)C)C(=O)N[C@@H](CC(C)C)C(=O)N1C[C@H](O)C[C@H]1C(=O)N(C)C(CC(C)(C)C)C(=O)N[C@@H](CC(=O)O)C(=O)N[C@@H](CCCNC(=N)N)C(=O)N[C@H](C(N)=O)[C@@H](C)CC` (stereo partly drawn) [JAL-1283, Occ-ala-Phe-leu-Leu-Hyp-(SH-158)-Asp-Arg-Ile-NH2] (HELM PEPTIDE1{[CCCCCCCC(=O)[*:2]].[dA].F.[dL].L.[Hyp].[CN(C(CC(C)(C)C)C(=O)[*:2])[*:1]].D.R.I.[am]}$$$$V2.0), the EC50 is reported as less than 1 µM.
`CCCCCCCC(=O)N[C@H](C)C(=O)N[C@@H](Cc1ccccc1)C(=O)N[C@H](CCCNC(=N)N)C(=O)N[C@@H](CC(C)C)C(=O)N1C[C@H](O)C[C@H]1C(=O)N(C)C(CC(C)(C)C)C(=O)N[C@@H](CC(=O)O)C(=O)N[C@@H](CCCNC(=N)N)C(=O)N[C@H](C(N)=O)[C@@H](C)CC` (stereo partly drawn) [JAL-1284, Occ-ala-Phe-arg-Leu-Hyp-(SH-158)-Asp-Arg-Ile-NH2] (HELM PEPTIDE1{[CCCCCCCC(=O)[*:2]].[dA].F.[dR].L.[Hyp].[CN(C(CC(C)(C)C)C(=O)[*:2])[*:1]].D.R.I.[am]}$$$$V2.0) showed an EC50 of less than 1 µM.
With `CCCCCCCC(=O)N[C@H](C)C(=O)N[C@@H](Cc1ccccc1)C(=O)N[C@H](CCCN(C)C)C(=O)N[C@@H](CC(C)C)C(=O)N1C[C@H](O)C[C@H]1C(=O)N(C)[C@@H](CC(C)C)C(=O)N[C@@H](CC(=O)O)C(=O)N[C@@H](CCCNC(=N)N)C(=O)N[C@H](C(N)=O)[C@@H](C)CC` [JAL-1288, Occ-ala-Phe-orn(Me2)-Leu-Hyp-Nml-Asp-Arg-Ile-NH2] (HELM PEPTIDE1{[CCCCCCCC(=O)[*:2]].[dA].F.[CN(C)CCC[C@@H](N[*:1])C(=O)[*:2]].L.[Hyp].[meL].D.R.I.[am]}$$$$V2.0) the EC50 was less than 1 µM.
For `CCCCCCCC(=O)OC(C)C(=O)N[C@@H](Cc1ccccc1)C(=O)N[C@H](CC(C)C)C(=O)N[C@@H](CC(C)C)C(=O)N1C[C@H](O)C[C@H]1C(=O)N(C)[C@@H](CC(C)C)C(=O)N[C@@H](CC(=O)O)C(=O)N[C@@H](CCCNC(=N)N)C(=O)N[C@H](C(N)=O)[C@@H](C)CC` (stereo partly drawn) [JAL-1294, (AR-201-49)-Phe-leu-Leu-Hyp-Nml-Asp-Arg-Ile-NH2] (HELM PEPTIDE1{[CCCCCCCC(=O)[*:2]].[CC(O[*:1])C(=O)[*:2]].F.[dL].L.[Hyp].[meL].D.R.I.[am]}$$$$V2.0), the EC50 was less than 1 µM.
Work on `CCCCCCCC(=O)N[C@H](C)C(=O)N[C@@H](Cc1ccccc1)C(=O)N[C@H](CC(C)C)C(=O)N[C@@H](CC(C)C)C(=O)N1C[C@H](N)C[C@H]1C(=O)N(C)[C@@H](CC(C)C)C(=O)N[C@@H](CC(=O)O)C(=O)N[C@@H](CCCNC(=N)N)C(=O)N[C@H](C(N)=O)[C@@H](C)CC` [JAL-1296, Occ-ala-Phe-leu-Leu-Tap-Nml-Asp-Arg-Ile-NH2] (HELM PEPTIDE1{[CCCCCCCC(=O)[*:2]].[dA].F.[dL].L.[N[C@@H]1C[C@@H](C(=O)[*:2])N([*:1])C1].[meL].D.R.I.[am]}$$$$V2.0) yielded an EC50 of less than 1 µM.
With `CCCCCCCCN1CCC[C@H](C(=O)N[C@@H](Cc2ccccc2)C(=O)N[C@H](CCCNC(=N)N)C(=O)N[C@@H](CC(C)C)C(=O)N2C[C@H](O)C[C@H]2C(=O)N(C)[C@@H](CC(C)C)C(=O)N[C@@H](CC(=O)O)C(=O)N[C@@H](CCCNC(=N)N)C(=O)N[C@H](C(N)=O)[C@@H](C)CC)C1` [JAL-1297, Oct-Sni-Phe-arg-Leu-Hyp-Nml-Asp-Arg-Ile-NH2] (HELM PEPTIDE1{[CCCCCCCCN1CCC[C@H](C(=O)[*:2])C1].F.[dR].L.[Hyp].[meL].D.R.I.[am]}$$$$V2.0) the EC50 was less than 1 µM.
With `CCCCCCCCN1CCC[C@H](C(=O)N[C@@H](Cc2ccccc2)C(=O)N[C@H](CC(C)C)C(=O)N[C@@H](CC(C)C)C(=O)N2C[C@H](O)C[C@H]2C(=O)N(C)[C@@H](CC(C)C)C(=O)N[C@@H](CC(=O)O)C(=O)N[C@@H](CCCNC(=N)N)C(=O)N[C@H](C(N)=O)[C@@H](C)CC)C1` [JAL-1302, Oct-Sni-Phe-leu-Leu-Hyp-Nml-Asp-Arg-Ile-NH2] (HELM PEPTIDE1{[CCCCCCCCN1CCC[C@H](C(=O)[*:2])C1].F.[dL].L.[Hyp].[meL].D.R.I.[am]}$$$$V2.0) the EC50 was less than 1 µM.
For `CCCCCCCC(=O)N[C@H](C)C(=O)N[C@@H](Cc1ccccc1)C(=O)N[C@H](CCCNC(=N)N)C(=O)N[C@@H](CC(C)C)C(=O)N1C[C@H](O)C[C@H]1C(=O)N(C)[C@@H](CC(C)C)C(=O)N[C@@H](CC(=O)O)C(=O)N[C@@H](CCCNC(=N)N)C(=O)N[C@H](C(N)=O)C(C)(C)C` [JAL-1305, Occ-ala-Phe-arg-Leu-Hyp-Nml-Asp-Arg-Tbg-NH2] (HELM PEPTIDE1{[CCCCCCCC(=O)[*:2]].[dA].F.[dR].L.[Hyp].[meL].D.R.[CC(C)(C)[C@H](N[*:1])C(=O)[*:2]].[am]}$$$$V2.0), the EC50 was less than 1 µM.
